Measured values published in US10016422B2, “Nanocarrier drug delivery platform” (Oregon State University, priority 2015, dated 2018).
≈ marks a conversion by molar mass, not a printed value. Each block holds one compound with its values, some of them ahead of it.

Assay: Intrinsic aqueous solubility and solubility increase in nanoparticles
Assay type: physicochemical
Settings: for solubility: aqueous medium; for increase of solubility by incorporation into the nanoparticles: versus intrinsic aqueous solubility

Compound: CC(=O)O[C@@]12CO[C@@H]1C[C@H](O)[C@@]1(C)C(=O)[C@H](O)C3=C(C)[C@@H](OC(=O)[C@H](O)[C@@H](NC(=O)OC(C)(C)C)c4ccccc4)C[C@@](O)([C@@H](OC(=O)c4ccccc4)[C@H]21)C3(C)C [DTX, docetaxel]
increase of solubility by incorporation into the nanoparticles: 455 fold

Compound: CO[C@H]1C[C@@H]2CC[C@@H](C)[C@@](O)(O2)C(=O)C(=O)N2CCCC[C@H]2C(=O)O[C@H]([C@H](C)C[C@@H]2CC[C@@H](OCCO)[C@H](OC)C2)CC(=O)[C@H](C)/C=C(\C)[C@@H](O)[C@@H](OC)C(=O)[C@H](C)C[C@H](C)/C=C/C=C/C=C/1C [EVR, everolimus]
solubility: 9.6 µg/mL (≈ 10 µM)
increase of solubility by incorporation into the nanoparticles: 201 fold

Now from value to compound:

solubility: 6 µg/mL (≈ 9.75 µM)
increase of solubility by incorporation into the nanoparticles: 221 fold
Compound: CC(=O)Nc1cccc(-n2c(=O)n(C3CC3)c(=O)c3c(Nc4ccc(I)cc4F)n(C)c(=O)c(C)c32)c1 [TRA, trametinib]

solubility: 243 µg/mL (≈ 791 µM)
increase of solubility by incorporation into the nanoparticles: 8 fold
Compound: O=c1cc(N2CCOCC2)oc2c(-c3ccccc3)cccc12 [LY, LY294002]

solubility: 1 µg/mL (≈ 1.92 µM)
increase of solubility by incorporation into the nanoparticles: 1000 fold
Compound: CC(C)(C)c1nc(-c2cccc(NS(=O)(=O)c3c(F)cccc3F)c2F)c(-c2ccnc(N)n2)s1 [DAB, dabrafenib]
